Reference: patent publication US20230263822A1, “MODULATION OF FACTOR 11 EXPRESSION” (Ionis Pharmaceuticals, Inc., priority 2008, published 2023)
Strand notation (5' to 3'): a small letter for the sugar, then the base; units joined by * are phosphorothioate-linked, units joined directly phosphodiester-linked; [ ] holds rarer units or linkages, { } end groups; capitals alone tell only the bases. e = 2'-O-(2-methoxyethyl) (MOE); [5mC] = 5-methylcytosine; d = 2'-deoxy (DNA)

How the values were obtained:
[1] = test system: human Factor 11 mRNA; experiment: Dose-dependent inhibition of human Factor 11 in HepG2 cells, lipofectin 2.34-75 nM (Example 5); type: cell-based; conditions: for percent inhibition of human Factor 11 mRNA relative to untreated control cells: ~16 hours
Method: (§1) Cells were plated at a density of 10,000 cells per well and transfected using lipofectin reagent with 2.34 nM, 4.69 nM, 9.375 nM, 18.75 nM, 37.5 nM, and 75 nM concentrations of antisense oligonucleotide, as specified in Table 11. After a treatment period of approximately 16 hours, RNA was isolated from the cells and human Factor 11 mRNA levels were measured by quantitative real-time PCR. Human Factor 11 primer probe set RTS 2966 was used to measure mRNA levels. Factor 11 mRNA levels were adjusted according to total RNA content, as measured by RIBOGREEN. Results are presented as percent inhibition of human Factor 11, relative to untreated control cells.

[2] = test system: human Factor 11 mRNA; experiment: Dose-dependent inhibition of human Factor 11 in HepG2 cells, electroporation 625-20,000 nM (Example 5); type: cell-based; conditions: ~16 hours
Method: The gapmers were also transfected via electroporation and their dose dependent inhibition of human Factor 11 mRNA was measured. Cells were plated at a density of 20,000 cells per well and transfected via electroporation with 625 nM, 1250 nM, 2500 nM, 5,000 nM, 10,000 nM, and 20,000 nM concentrations of antisense oligonucleotide, as specified in Table 12. After a treatment period of approximately 16 hours, RNA was isolated from the cells and human Factor 11 mRNA levels were measured by quantitative real-time PCR. Human Factor 11 primer probe set RTS 2966 was used to measure mRNA levels. Factor 11 mRNA levels were adjusted according to total RNA content, as measured by RIBOGREEN. Results are presented as percent inhibition of human Factor 11, relative to untreated control cells.

[3] = test system: human Factor 11 mRNA; experiment: Dose-dependent inhibition of human Factor 11 in HepB3 cells, lipofectin (Example 7); type: cell-based; conditions: for percent inhibition of Factor 11 mRNA relative to untreated control cells: ~16 hours
Method: as §1, with “4,000” for “10,000”, “2.3” for “2.34”, “4.7” for “4.69”, “9.4” for “9.375”, “14.” for “11.”, “of” for “of human”

[4] = Hematology assays in cynomolgus monkeys (Example 46); type: in vivo
Outline: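 Two male and two female monkeys per group received antisense oligonucleotide subcutaneously at 25 mg/kg, three times weekly in week 1 then twice weekly through week 8; PBS controls dosed identically. Blood sampled pre-dose and repeatedly during dosing for PT, aPTT and hematologic factors; necropsy on day 55.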

416825 (antisense GCCCTTCATGTCTAGGTCCA; 5-10-5 gapmer, further chemistry not given here) [compound 416825]
IC50 [1]: 13 nM | percent inhibition of human Factor 11 mRNA relative to untreated control cells ([1]; 2.34 nM): 4% | percent inhibition of human Factor 11 mRNA relative to untreated control cells ([1]; 4.69 nM): 22% | percent inhibition of human Factor 11 mRNA relative to untreated control cells ([1]; 9.375 nM): 39% | percent inhibition of human Factor 11 mRNA relative to untreated control cells ([1]; 18.75 nM): 57% | percent inhibition of human Factor 11 mRNA relative to untreated control cells ([1]; 37.5 nM): 79% | percent inhibition of human Factor 11 mRNA relative to untreated control cells ([1]; 75 nM): 89% | percent inhibition of human Factor 11 mRNA relative to untreated control cells ([2]; 625 nM): 69% | percent inhibition of human Factor 11 mRNA relative to untreated control cells ([2]; 1250 nM): 84% | percent inhibition of human Factor 11 mRNA relative to untreated control cells ([2]; 2500 nM): 91% | percent inhibition of human Factor 11 mRNA relative to untreated control cells ([2]; 5000 nM): 94% | percent inhibition of human Factor 11 mRNA relative to untreated control cells ([2]; 10000 nM): 96% | percent inhibition of human Factor 11 mRNA relative to untreated control cells ([2]; 20000 nM): 97% | IC50 [3]: 35 nM | percent inhibition of Factor 11 mRNA relative to untreated control cells ([3]; 2.3 nM): 0% | percent inhibition of Factor 11 mRNA relative to untreated control cells ([3]; 4.7 nM): 15% | percent inhibition of Factor 11 mRNA relative to untreated control cells ([3]; 9.4 nM): 34% | percent inhibition of Factor 11 mRNA relative to untreated control cells ([3]; 18.75 nM): 36% | percent inhibition of Factor 11 mRNA relative to untreated control cells ([3]; 37.5 nM): 53% | percent inhibition of Factor 11 mRNA relative to untreated control cells ([3]; 75 nM): 59%

416826 (antisense ATGCCCTTCATGTCTAGGTC; 5-10-5 gapmer, further chemistry not given here) [compound 416826]
IC50 [1]: 15 nM | percent inhibition of human Factor 11 mRNA relative to untreated control cells ([1]; 2.34 nM): 15% | percent inhibition of human Factor 11 mRNA relative to untreated control cells ([1]; 4.69 nM): 22% | percent inhibition of human Factor 11 mRNA relative to untreated control cells ([1]; 9.375 nM): 32% | percent inhibition of human Factor 11 mRNA relative to untreated control cells ([1]; 18.75 nM): 54% | percent inhibition of human Factor 11 mRNA relative to untreated control cells ([1]; 37.5 nM): 76% | percent inhibition of human Factor 11 mRNA relative to untreated control cells ([1]; 75 nM): 90% | percent inhibition of human Factor 11 mRNA relative to untreated control cells ([2]; 625 nM): 67% | percent inhibition of human Factor 11 mRNA relative to untreated control cells ([2]; 1250 nM): 82% | percent inhibition of human Factor 11 mRNA relative to untreated control cells ([2]; 2500 nM): 89% | percent inhibition of human Factor 11 mRNA relative to untreated control cells ([2]; 5000 nM): 92% | percent inhibition of human Factor 11 mRNA relative to untreated control cells ([2]; 10000 nM): 95% | percent inhibition of human Factor 11 mRNA relative to untreated control cells ([2]; 20000 nM): 97% | IC50 [3]: 16 nM | percent inhibition of Factor 11 mRNA relative to untreated control cells ([3]; 2.3 nM): 16% | percent inhibition of Factor 11 mRNA relative to untreated control cells ([3]; 4.7 nM): 28% | percent inhibition of Factor 11 mRNA relative to untreated control cells ([3]; 9.4 nM): 38% | percent inhibition of Factor 11 mRNA relative to untreated control cells ([3]; 18.75 nM): 55% | percent inhibition of Factor 11 mRNA relative to untreated control cells ([3]; 37.5 nM): 64% | percent inhibition of Factor 11 mRNA relative to untreated control cells ([3]; 75 nM): 66%

416838 (antisense GCAACCGGGATGATGAGTGC; 5-10-5 gapmer, further chemistry not given here) [compound 416838]
IC50 [1]: 10 nM | percent inhibition of human Factor 11 mRNA relative to untreated control cells ([1]; 2.34 nM): 21% | percent inhibition of human Factor 11 mRNA relative to untreated control cells ([1]; 4.69 nM): 37% | percent inhibition of human Factor 11 mRNA relative to untreated control cells ([1]; 9.375 nM): 50% | percent inhibition of human Factor 11 mRNA relative to untreated control cells ([1]; 18.75 nM): 63% | percent inhibition of human Factor 11 mRNA relative to untreated control cells ([1]; 37.5 nM): 74% | percent inhibition of human Factor 11 mRNA relative to untreated control cells ([1]; 75 nM): 83% | percent inhibition of human Factor 11 mRNA relative to untreated control cells ([2]; 625 nM): 66% | percent inhibition of human Factor 11 mRNA relative to untreated control cells ([2]; 1250 nM): 79% | percent inhibition of human Factor 11 mRNA relative to untreated control cells ([2]; 2500 nM): 87% | percent inhibition of human Factor 11 mRNA relative to untreated control cells ([2]; 5000 nM): 90% | percent inhibition of human Factor 11 mRNA relative to untreated control cells ([2]; 10000 nM): 93% | percent inhibition of human Factor 11 mRNA relative to untreated control cells ([2]; 20000 nM): 96% | IC50 [3]: 11 nM | percent inhibition of Factor 11 mRNA relative to untreated control cells ([3]; 2.3 nM): 23% | percent inhibition of Factor 11 mRNA relative to untreated control cells ([3]; 4.7 nM): 34% | percent inhibition of Factor 11 mRNA relative to untreated control cells ([3]; 9.4 nM): 43% | percent inhibition of Factor 11 mRNA relative to untreated control cells ([3]; 18.75 nM): 59% | percent inhibition of Factor 11 mRNA relative to untreated control cells ([3]; 37.5 nM): 71% | percent inhibition of Factor 11 mRNA relative to untreated control cells ([3]; 75 nM): 56%

ISIS 449711: 3-8-3, 4-8-4, 2-10-2, 3-10-3 or 4-10-4 MOE microwalk gapmer (Table 46) (antisense eA*e[5mC]*dA*dG*dT*dT*dT*d[5mC]*dT*dG*dG*d[5mC]*eA*eG)
HCT ([4]; Day 17): 42% | MCH ([4]; Day 17): 22.2 pg | MCHC ([4]; Day 17): 29.9 g/dL | MCV ([4]; Day 17): 75 fL | RBC count ([4]; Day 17): 5.6e+06 µL⁻¹ | WBC count ([4]; Day 17): 10000 µL⁻¹ | hemoglobin content ([4]; Day 17): 12.5 g/dL | monocytes ([4]; Day 17): 5.9% | neutrophils ([4]; Day 17): 52% | platelet count ([4]; Day 17): 325 ×100/μL | HCT ([4]; Day 31): 39% | MCH ([4]; Day 31): 22.1 pg | MCHC ([4]; Day 31): 29.8 g/dL | MCV ([4]; Day 31): 73 fL | RBC count ([4]; Day 31): 5.4e+06 µL⁻¹ | WBC count ([4]; Day 31): 9000 µL⁻¹ | hemoglobin content ([4]; Day 31): 11.8 g/dL | monocytes ([4]; Day 31): 6.9% | neutrophils ([4]; Day 31): 58% | platelet count ([4]; Day 31): 309 ×100/μL | HCT ([4]; Day 45): 39% | MCH ([4]; Day 45): 21.7 pg | MCHC ([4]; Day 45): 29.6 g/dL | MCV ([4]; Day 45): 73 fL | RBC count ([4]; Day 45): 5.4e+06 µL⁻¹ | WBC count ([4]; Day 45): 9000 µL⁻¹ | hemoglobin content ([4]; Day 45): 11.5 g/dL | monocytes ([4]; Day 45): 7.6% | neutrophils ([4]; Day 45): 45% | platelet count ([4]; Day 45): 257 ×100/μL | HCT ([4]; Day 55): 38% | MCH ([4]; Day 55): 21.3 pg | MCHC ([4]; Day 55): 29.5 g/dL | MCV ([4]; Day 55): 73 fL | RBC count ([4]; Day 55): 5.3e+06 µL⁻¹ | WBC count ([4]; Day 55): 7000 µL⁻¹ | hemoglobin content ([4]; Day 55): 11.3 g/dL | monocytes ([4]; Day 55): 7.8% | neutrophils ([4]; Day 55): 70% | platelet count ([4]; Day 55): 259 ×100/μL | HCT ([4]; Day-5): 41% | MCH ([4]; Day-5): 22.7 pg | MCHC ([4]; Day-5): 30.7 g/dL | MCV ([4]; Day-5): 74 fL | RBC count ([4]; Day-5): 5.7e+06 µL⁻¹ | WBC count ([4]; Day-5): 12000 µL⁻¹ | hemoglobin content ([4]; Day-5): 12.7 g/dL | monocytes ([4]; Day-5): 2.3% | neutrophils ([4]; Day-5): 71% | platelet count ([4]; Day-5): 431 ×100/μL | HCT ([4]; Day-14): 41% | MCH ([4]; Day-14): 22.6 pg | MCHC ([4]; Day-14): 31.0 g/dL | MCV ([4]; Day-14): 73 fL | RBC count ([4]; Day-14): 5.6e+06 µL⁻¹ | WBC count ([4]; Day-14): 13000 µL⁻¹ | hemoglobin content ([4]; Day-14): 12.7 g/dL | monocytes ([4]; Day-14): 1.2% | neutrophils ([4]; Day-14): 64% | platelet count ([4]; Day-14): 410 ×100/μL
